The source of these data is US20120190017A1, “POLYMORPHISMS IN THE HUMAN GENE FOR THE MULTIDRUG RESISTANCE-ASSOCIATED PROTEIN 1 (MRP-1) AND THEIR USE IN DIAGNOSTIC AND THERAPEUTIC APPLICATIONS” (priority 2001, published 2012).

The subject of this assay is MRP-1 mRNA. The experiment in a line: MRP-1 mRNA content in duodenal biopsies from healthy volunteers before and after application of rifampicin. It is filed as in vivo, human. The conditions noted are these: before (A) vs after (B) application of rifampicin, paired T-test p<0.001. The text has this:
FIG. 3: Diagram 1A and 1B represent the correlation of the genotype (wt/wt: 1; wt/mut and mut/mut:2) with MRP-1 mRNA content in duodenal biopsies from healthy volunteers derived from two independent experiments, before (A) and after (B) application of rifampicin. The p-value of the statistical evaluation (Kruskal-Wallis-Test), which result in a genotyp/phenotype correlation is p=0.086. […] Thus, the differences in the MRP-1 mRNA content are based on interindividual differences. The statistical analyses were performed using the computer program SPSS 10.0 (SPSS, Chicago, USA).
Functional polymorphisms in the MRP-1 gene (see tables in examples 2 and 4) affect the transport activity and subsequently the levels of drugs which are substrates of MRP-1. […] Three different patient collectives, two show side effects during drug therapy and one for which the MRP-1 mRNA levels had been defined, were analyzed to determine whether MRP-1 polymorphisms correlate with transporter activity and subsequently with alterations in drug activities and side effects. […] For this purpose, the 3 collectives (collective 1: samples with nephrotoxicities after cisplatin therapy; collective 2: liver and kidney side effects; collective 3: samples with defined high or low MRP-1 mRNA levels) were screened for all MRP-1 gene fragments, in which the new SNP's could be detected. […]

Consider `CO[C@H]1/C=C/O[C@@]2(C)Oc3c(C)c(O)c4c(O)c(c(/C=N/N5CCN(C)CC5)c(O)c4c3C2=O)NC(=O)/C(C)=C\C=C\[C@H](C)[C@H](O)[C@@H](C)[C@@H](O)[C@@H](C)[C@H](OC(C)=O)[C@@H]1C` [rifampicin], for which the “effect on MRP-1 mRNA expression” value was “no effect”.
